Measured values as given in patent US10828315B2 (Madrigal Pharmaceuticals, Inc., priority 2013, dated 2020).
pIC50: −log10 of the molar value. Where two headings read alike, the source gives them in different places.

Key:
HER2 = HER2 degradation assay with BT-474 cell line (Example 12, FACS); type: cell-based, human
[1] = Tissue Distribution Data for SDC-TRAP-0195
[2] = Mouse plasma stability protocol, up to 1 h (Examples 16-18); conditions: % Remaining of parent after 1 h incubation in mouse plasma at 37° C. (10 μM)
[3] = Artificial membrane permeability assay (PAMPA); conditions: incubation 5 h, first table
[4] = SDC-TRAP-0063 PK in male SD rats (slow IV bolus); type: in vivo; conditions: of monitored analyte
[5] = SDC-TRAP-0063 PK in male CD-1 mice (IV bolus); type: in vivo; conditions: of monitored analyte
[6] = system: human breast cancer cell line BT-474; assay: Cytotoxicity assay (CellTiter-Glo, 72 h), BT-474; type: cell-based; conditions: read-out: Cytotoxicity (IC50, nM) BT-474
Method: (§1) Cytotoxicity of SDC-TRAP molecules was determined in three cancer cell lines. […] 80 μL of CellTiter-Glo was added to each well, followed by room temperature incubation in the dark for 15 minutes. Cell was determined by luminescence. IC50 was calculated using XLfit™ software.

[7] = system: human urinary bladder cancer cell line RT-112; assay: Cytotoxicity assay (CellTiter-Glo, 72 h), RT-112; type: cell-based; conditions: read-out: Cytotoxicity (IC50, nM) RT-112
Method: as §1

[8] = system: human urinary bladder cancer cell line SW780; assay: Cytotoxicity assay (CellTiter-Glo, 72 h), SW780; type: cell-based; conditions: read-out: Cytotoxicity (IC50, nM) SW-780
Method: as §1

[9] = dosed SDC-TRAP-0063 10 mpk slow IV bolus
[10] = dosed SDC-TRAP-0063 50 mpk slow IV bolus
[11] = dosed SDC-TRAP-0063 100 mpk slow IV bolus
[12] = dosed SDC-TRAP-0063 150 mpk slow IV bolus
[13] = dosed SDC-TRAP-0063 50 mpk IV bolus
[14] = dosed SDC-TRAP-0063 100 mpk IV bolus
[15] = dosed SDC-TRAP-0063 200 mpk IV bolus

In the case of `CCNC(=O)c1nnc(-c2cc(C(C)C)c(O)cc2O)n1-c1ccc(CN2CCC(C(=O)N3CCN(c4cc(C)c(OC(=O)Nc5cccc6c5CN(C5CCC(=O)NC5=O)C6=O)c(C)c4)CC3)CC2)cc1` (stereo not drawn) [SDC-TRAP-0195, 4-(4-(1-(4-(3-(2,4-dihydroxy-5-isopropylphenyl)-5-(ethylcarbamoyl)-4H-1,2,4-triazol-4-yl)benzyl)piperidine-4-carbonyl)piperazin-1-yl)-2,6-dimethylphenyl (2-(2,6-dioxopiperidin-3-yl)-1-oxoisoindolin-4-yl)carbamate], the pIC50 (HER2) was 7.31, the “Plasma Conc.” value ([1]; Time (h) 0.083) was 1220 µM and the “Tumor Conc.” value ([1]; Time (h) 0.083) was 17.1 nmol/g of tissue. The “Tumor/Plasma Ratio” value ([1]; Time (h) 0.083) was 0.0140, the “Plasma Conc.” value ([1]; Time (h) 1) was 211 µM and the “Tumor Conc.” value ([1]; Time (h) 1) was 23.0 nmol/g of tissue. The “Tumor/Plasma Ratio” value ([1]; Time (h) 1) was 0.109, the “Plasma Conc.” value ([1]; Time (h) 6) was 7.23 µM and the “Tumor Conc.” value ([1]; Time (h) 6) was 17.1 nmol/g of tissue. For the same compound, the “Tumor/Plasma Ratio” value ([1]; Time (h) 6) was 2.36, the “Plasma Conc.” value ([1]; Time (h) 24) was 2.03 µM and the “Tumor Conc.” value ([1]; Time (h) 24) was 11.2 nmol/g of tissue. For the same compound, the “Tumor/Plasma Ratio” value ([1]; Time (h) 24) was 5.50, the “Plasma Conc.” value ([1]; Time (h) 48) was “BQL” and the “Tumor Conc.” value ([1]; Time (h) 48) was 12.6 nmol/g of tissue. For the same compound, the “% Remaining (1 h)” value [2] was 98.4% and the “Mass Retention” value [3] was 27.1%.
`CCc1c2c(nc3ccc(OC(=O)N4CCC(CCn5ccc6cc(-n7c(O)nnc7-c7cc(C(C)C)c(O)cc7O)ccc65)CC4)cc13)-c1cc3c(c(=O)n1C2)COC(=O)C3(O)CC` (stereo not drawn) [compound 0063] showed an AUCinf [4, 9] of 38.8 µM·h, an AUCt [4, 9] of 38.8 µM·h and a CL [4, 9] of 4.9 mL/min/kg. It also gave a Cmax [4, 9] of 102 µM, a Tmax [4, 9] of 4.98 min and a Vss [4, 9] of 0.0590 L/kg. The Vz [4, 9] was 0.441 L/kg, the t1/2 [4, 9] was 60 min and the AUCinf [4, 10] was 687 µM·h. It also gave an AUCt [4, 10] of 687 µM·h, a CL [4, 10] of 1.38 mL/min/kg and a Cmax [4, 10] of 659 µM. The Tmax [4, 10] was 4.98 min, the Vss [4, 10] was 0.0640 L/kg and the Vz [4, 10] was 0.0924 L/kg. The t1/2 [4, 10] was 48 min, the AUCinf [4, 11] was 1786 µM·h and the AUCt [4, 11] was 1785 µM·h. The CL [4, 11] was 1.08 mL/min/kg, the Cmax [4, 11] was 1210 µM and the Tmax [4, 11] was 4.98 min. The Vss [4, 11] was 0.0654 L/kg, the Vz [4, 11] was 0.153 L/kg and the t1/2 [4, 11] was 96 min. It also gave an AUCinf [4, 12] of 5302 µM·h, an AUCt [4, 12] of 5302 µM·h and a CL [4, 12] of 0.547 mL/min/kg. The Cmax [4, 12] was 1900 µM, the Tmax [4, 12] was 30 min and the Vss [4, 12] was 0.0663 L/kg. For the same compound, the Vz [4, 12] was 0.0855 L/kg, the t1/2 [4, 12] was 108 min and the AUCinf [5, 13] was 237 µM·h. For the same compound, the AUCt [5, 13] was 235 µM·h, the CL [5, 13] was 4 mL/min/kg and the Cmax [5, 13] was 414 µM. The Tmax [5, 13] was 4.98 min, the Vss [5, 13] was 0.122 L/kg and the Vz [5, 13] was 0.659 L/kg. It also gave a t1/2 [5, 13] of 114 min, an AUCinf [5, 14] of 549 µM·h and an AUCt [5, 14] of 549 µM·h. It also gave a CL [5, 14] of 3.45 mL/min/kg, a Cmax [5, 14] of 799 µM and a Tmax [5, 14] of 4.98 min. The Vss [5, 14] was 0.241 L/kg, the Vz [5, 14] was 0.747 L/kg and the t1/2 [5, 14] was 150 min. For the same compound, the AUCinf [5, 15] was 2884 µM·h, the AUCt [5, 15] was 2882 µM·h and the CL [5, 15] was 1.32 mL/min/kg. For the same compound, the Cmax [5, 15] was 1620 µM, the Tmax [5, 15] was 4.98 min and the Vss [5, 15] was 0.173 L/kg. The Vz [5, 15] was 0.307 L/kg and the t1/2 [5, 15] was 162 min.
For `CC(C)c1cc(-c2nnc(O)n2-c2ccc3c(c2)CN(C(=O)c2ccc(CCc4c[nH]c5nc(N)[nH]c(=O)c45)cc2)C3)c(O)cc1O` [SDC-TRAP-0093, 2-amino-5-(4-(5-(3-(2,4-dihydroxy-5-isopropylphenyl)-5-hydroxy-4H-1,2,4-triazol-4-yl)isoindoline-2-carbonyl)phenethyl)-3H-pyrrolo[2,3-d]pyrimidin-4(7H)-one], the IC50 ([6]; BT-474, 72 hours) was 1540 nM, the IC50 ([7]; RT-112, 72 hours) was 1290 nM and the IC50 ([8]; SW780, 72 hours) was > 10000 nM.
Work on `CC(C)c1cc(-c2nnc(O)n2-c2ccc(CN3CCN(C(=O)CCCc4nc5cc(N(CCCl)CCCl)ccc5n4C)CC3)cc2)c(O)cc1O` [SDC-TRAP-0069, 4-(5-(bis (2-chloroethyl)amino)-1-methyl-1H-benzo[d]imidazol-2-yl)-1-(4-(4-(3-(2,4-dihydroxy-5-isopropylphenyl)-5-hydroxy-4H-1,2,4-triazol-4-yl)benzyl)piperazin-1-yl)butan-1-one] yielded a pIC50 (HER2; BT-474 cells, overnight) of 5.91, an IC50 ([6]; BT-474, 72 h) of 914 nM and an IC50 ([7]; RT-112, 72 h) of 909 nM. It also gave an IC50 ([8]; SW780, 72 h) of 1340 nM.
For `CC(C)c1cc(C(=O)N2Cc3ccc(NC(=O)CCCc4nc5cc(N(CCCl)CCCl)ccc5n4C)cc3C2)c(O)cc1O` [SDC-TRAP-0211, 4-(5-(bis(2-chloroethyl)amino)-1-methyl-1H-benzo[d]imidazol-2-yl)-N-(2-(2,4-dihydroxy-5-isopropylbenzoyl)isoindolin-5-yl)butanamide], the pIC50 (HER2; BT-474 cells, overnight) was 6.54, the IC50 ([6]; BT-474, 72 h) was 249 nM and the IC50 ([7]; RT-112, 72 h) was 110 nM. For the same compound, the IC50 ([8]; SW780, 72 h) was 2340 nM.
`CCc1c2c(nc3ccc(OC(=O)N4CCN(C(=O)Cn5ccc6cc(-n7c(O)nnc7-c7cc(C(C)C)c(O)cc7O)ccc65)CC4C)cc13)-c1cc3c(c(=O)n1C2)COC(=O)C3(O)CC` (stereo not drawn) [SDC-TRAP-0201, 4,11-Diethyl-4-hydroxy-3,14-dioxo-3,4,12,14-tetrahydro-1H-pyrano[3′,4′:6,7]indolizino[1,2-b]quinolin-9-yl 4-(2-(5-(3-(2,4-dihydroxy-5-isopropylphenyl)-5-hydroxy-4H-1,2,4-triazol-4-yl)-1H-indol-1-yl)acetyl)-2-methylpiperazine-1-carboxylate] gave a pIC50 (HER2) of 5.33, an IC50 ([6]; BT-474, 72 h) of 1410 nM and an IC50 ([7]; RT-112, 72 h) of 72 nM. The IC50 ([8]; SW780, 72 h) was 1100 nM.
In the case of `CCNC(=O)c1nnc(-c2cc(C(C)C)c(O)cc2O)n1-c1ccc(CN2CCC(C(=O)N3CCC(C(=O)N[C@H]4C[C@H](O[C@H]5C[C@](O)(C(=O)CO)Cc6c(O)c7c(c(O)c65)C(=O)c5c(OC)cccc5C7=O)O[C@@H](C)[C@H]4O)CC3)CC2)cc1` [SDC-TRAP-0198, 1-(1-(4-(3-(2,4-dihydroxy-5-isopropylphenyl)-5-(ethylcarbamoyl)-4H-1,2,4-triazol-4-yl)benzyl)piperidine-4-carbonyl)-N-((2S,3S,4S,6R)-3-hydroxy-2-methyl-6-(((1S,3S)-3,5, 12-trihydroxy-3-(2-hydroxyacetyl)-10-methoxy-6,11-dioxo-1,2,3,4,6,11-hexahydrotetracen-1-yl)oxy)tetrahydro-2H-pyran-4-yl)piperidine-4-carboxamide], the pIC50 (HER2; BT-474 cells, overnight) was < 5.00, the IC50 ([6]; BT-474, 72 hours) was 786 nM and the IC50 ([7]; RT-112, 72 hours) was 297 nM. The IC50 ([8]; SW780, 72 hours) was > 10000 nM.
For `CCc1c2c(nc3ccc(OC(=O)N4CCC[C@H]4C(=O)N4CCN(c5ccc(-n6c(O)nnc6-c6cc(C(C)C)c(O)cc6O)cc5)CC4)cc13)-c1cc3c(c(=O)n1C2)COC(=O)[C@]3(O)CC` [SDC-TRAP-0204, (S)—(S)-4,11-diethyl-4-hydroxy-3,14-dioxo-3,4,12,14-tetrahydro-1H-pyrano[3′,4′:6,7]indolizino[1,2-b]quinolin-9-yl 2-(4-(4-(3-(2,4-dihydroxy-5-isopropylphenyl)-5-hydroxy-4H-1,2,4-triazol-4-yl)phenyl)piperazine-1-carbonyl)pyrrolidine-1-carboxylate], the pIC50 (HER2) was < 5.00, the IC50 ([6]; BT-474, 72 h) was 8060 nM and the IC50 ([7]; RT-112, 72 h) was 1310 nM. For the same compound, the IC50 ([8]; SW780, 72 h) was > 10000 nM.
With `COc1cccc2c1C(=O)c1c(O)c3c(c(O)c1C2=O)C[C@@](O)(/C(CO)=N/NC(=O)CCn1ccc2cc(-n4c(O)nnc4-c4cc(C(C)C)c(O)cc4O)ccc21)C[C@@H]3O[C@H]1C[C@H](N)[C@H](O)[C@H](C)O1` [SDC-TRAP-0219, (E)-N′-(1-((2S,4S)-4-(((2R,4S,5S,6S)-4-amino-5-hydroxy-6-methyltetrahydro-2H-pyran-2-yl)oxy)-2,5,12-trihydroxy-7-methoxy-6,11-dioxo-1,2,3,4,6,11-hexahydrotetracen-2-yl)-2-hydroxyethylidene)-3-(5-(3-(2,4-dihydroxy-5-isopropylphenyl)-5-hydroxy-4H-1,2,4-triazol-4-yl)-1H-indol-1-yl)propanehydrazide] the IC50 ([6]; BT-474, 72 hours) was > 10000 nM, the IC50 ([7]; RT-112, 72 hours) was 973 nM and the IC50 ([8]; SW780, 72 hours) was > 10000 nM.
